Assay results as given in patent publication US9085608B2, “Treatment of biofilms” (LYTIX BIOPHARMA AS, priority 2008, dated 2015).
Converted amounts (≈) assume the structure as drawn. “Also recorded” adds a separate entry of the source. Residues, ends and D or L forms follow the SMILES beside them. *: point of attachment. NHPhenethyl = c1ccc(CCN*)cc1

Assays:
[1] = tested on: Staphylococcus aureus PIA 9; test: microbe, parasite or virus in culture
Method: (§1) Bacteria were grown overnight at 37° C. in cation adjusted Mueller-Hinton II Broth (MHIIB).
(§2) We determined the MICs of oxacillin, gentamicin, tetracycline, vancomycin and linezolid using E-test (AB Biodisk, Solna, Sweden) and MICs of rifampicin using broth microdilution assay. Breakpoints were interpreted according to EUCAST criteria. […] All 3 SAMPs are tripeptides with two arginine residues providing their cationic moieties (FIG. 1). The lipophilic bulk is provided by a modified tryptophane derivate. […] The molecular weights of the SAMPs are in the range of 700-800 Dalton.

[2] = tested on: Staphylococcus aureus PIA90; test: microbe, parasite or virus in culture
Method: as §1, §2

[3] = tested on: Staphylococcus epidermidis RP62A ATCC 35984; test: microbe, parasite or virus in culture
Method: as §1, §2

[4] = tested on: Staphylococcus epidermidis TUH 08-16; test: microbe, parasite or virus in culture
Method: as §1, §2

[5] = tested on: Staphylococcus haemolyticus TUH 51-03; test: microbe, parasite or virus in culture
Method: as §1, §2

[6] = tested on: Staphylococcus haemolyticus TUH 51-07; test: microbe, parasite or virus in culture
Method: as §1, §2

[7] = tested on: 24 h old biofilm of 6 different staphylococcal strains; test: Biofilm metabolic activity, Alamar blue reduction; assay type: cell-based, S. epidermidis, S. haemolyticus, S. aureus; settings: 50 mg/L, 24 h treatment; all biofilms except S. aureus PIA 9
Method: Biofilm formation was induced in 96-well flat bottom microtitre plates (Nunclon Surface, NUNC, Roskilde, Denmark). First, overnight cultures were diluted 1:100 in MHIIB (S. epidermidis and S. haemolyticus) or tryptic soy broth (TSB) with 5% glucose and 5% NaCl (S. aureus). Two hundred of this bacterial suspension (10^7 cfu/ml) was added to each well and incubated for 24 h at 37° C. After 24 h the wells were carefully washed twice with phosphate-buffered saline (PBS) to remove planktonic bacteria. The washing procedure was evaluated by measuring metabolic activity of the PBS with the Alamar blue method, described in detail below.
The washed biofilms were subjected to treatment with antibiotics or SAMPs at different concentrations. Stock solutions of the tetracycline (Sigma Aldrich), vancomycin (Alpharma) and linezolid (Pfizer) were diluted in MHIIB to 5 mg/L, 50 mg/L and 500 mg/L, and rifampicin (Sigma Aldrich) was diluted in MHIIB to 0.01 mg/L, 0.1 mg/L and 1 mg/L. Trifluoroacetate salts of the SAMPs were dissolved in sterile water and diluted to 5 mg/L, 50 mg/L and 500 mg/L in MHIIB. 200 μl of antibiotics or SAMPs, in different concentrations, were added to each well and incubated for 24 h at 37° C. Positive controls were untreated biofilms only added 200 μl MHIIB. Negative controls were only 200 μl MHIIB, with no bacteria added.
We quantified the metabolic activity of biofilm with a slightly modified method previously described by Pettit et al. in Antimicrob. […] Briefly, the wells were washed twice with PBS. We then added 250 μl MHIIB with 5% Alamar blue (AB; Invitrogen, Carlsbad, Calif., USA) to each well. AB is a redox indicator which both fluoresces and changes colour in response to chemical reduction. The extent of reduction is a reflection of bacterial cell viability. After 1 h incubation at 37° C., absorbance was recorded at 570 and 600 nm using Versamax tuneable microplate reader (Molecular Devices, Sunnyvale, Calif., USA). […] The highest and lowest value of each run was excluded from the analyses, and the remaining 18 values were averaged.
The percent reduction of AB was calculated according to the manufacturer's formula (Invitrogen, Carlsbad, USA). We calculated mean and standard deviations (SD) of all repeated measurements.
We defined two levels of antimicrobial suppression of metabolic activity.

[8] = tested on: 42-77 S. epidermidis; assay type: cell-based; settings: planctonic
Description: (§3) Minimum Inhibitory Concentration (MIC) on Planctonic Bacteria

[9] = tested on: 51-03 S. haemolyticus; assay type: cell-based; settings: planctonic
Description: as §3

[10] = tested on: 51-07 S. haemolyticus; assay type: cell-based; settings: planctonic
Description: as §3

[11] = tested on: 8-16 S. epidermidis; assay type: cell-based; settings: planctonic
Description: as §3

[12] = tested on: PIA 9 S. aureus; assay type: cell-based; settings: planctonic
Description: as §3

[13] = tested on: PIA 90 S. aureus; assay type: cell-based; settings: planctonic
Description: as §3

[14] = tested on: 42-77 S. epidermidis biofilm; test: MBIC, biofilm survival rate by Alamar blue, Example 3; assay type: cell-based; settings: 24 h
Method: (§4) Biofilm formation was induced in 96-well flat bottom microtitre plates (Nunclon Surface, NUNC). First, overnight cultures were diluted 1:100 in MHIIB (S. epidermidis and S. haemolyticus) or tryptic soy broth (TSB) with 5% glucose and 5% NaCl (S. aureus). […] of this bacterial suspension (10^7 cfu/ml) was added to each well and incubated for 24 h at 37° C. After 24 h the wells were carefully washed twice with phosphate-buffered saline (PBS) to remove planktonic bacteria. The washing procedure was carefully evaluated by measuring metabolic activity of the PBS with the Alamar blue method, described in detail below.
(§5) The washed biofilms were subjected to treatment with the Compounds at different concentrations.
(§6) Trifluoroacetate salts of the compounds were dissolved in sterile water and diluted to 5 mg/L, 50 mg/L and 500 mg/L in MHIIB. […] of the Compounds, in different concentrations, were added to each well and incubated for 24 h at 37° C. Positive controls were untreated biofilms only added 200 MHIIB. Negative controls were only 200 μl MHIIB, with no bacteria added.
(§7) The metabolic activity of the biofilm was quantified with a slightly modified method previously described by Pettit et al. Antimicrob. Agents Chemother. 2005; 49: 2612-7. Briefly, after the 24 h incubation with antimicrobial agents the wells were again washed twice with PBS and then added […] MHIIB with 5% Alamar blue (AB; Biosource, Camarillo, Calif., USA). AB is a redox indicator which both fluoresces and changes colour in response to chemical reduction. The extent of reduction is a reflection of bacterial cell viability. After 1 h incubation at 37° C., absorbance was recorded at 570 and 600 nm using Versamax tuneable microplate reader (Molecular Devices, Sunnyvale, Calif., USA). All assays were performed 3 times with 8 parallels. The highest and lowest value of each run was excluded from the analyses, and the remaining 18 values were averaged.

[15] = tested on: 51-03 S. haemolyticus biofilm; test: as above; assay type: cell-based; settings: 24 h
Method: as §4, §5, §6, §7

[16] = tested on: 51-07 S. haemolyticus biofilm; test: as above; assay type: cell-based; settings: 24 h
Method: as §4, §5, §6, §7

[17] = tested on: 8-16 S. epidermidis biofilm; test: as above; assay type: cell-based; settings: 24 h
Method: as §4, §5, §6, §7

[18] = tested on: PIA 9 S. aureus biofilm; test: as above; assay type: cell-based; settings: 24 h
Method: as §4, §5, §6, §7

[19] = tested on: PIA 90 S. aureus biofilm; test: as above; assay type: cell-based; settings: 24 h
Method: as §4, §5, §6, §7

[20] = tested on: six staphylococcal strains (2 S. epidermidis, 2 S. haemolyticus and 2 S. aureus); test: Susceptibility testing under planktonic growth condition, EUCAST breakpoints; assay type: cell-based; settings: EUCAST criteria
Method: The six staphylococcal strains (2 S. epidermidis, 2 S. haemolyticus and 2 S. aureus) used in this study were selected based on their previously known biofilm forming capacity (Table 1).
as §1
We determined the MICs of oxacillin, gentamicin, tetracycline, vancomycin and linezolid using E-test (AB Biodisk, Solna, Sweden) and MICs of rifampicin using broth microdilution assay. Breakpoints were interpreted according to EUCAST criteria. We selected 3 different SAMPs (Compounds A, B and C; Lytix Biopharma, Tromsø, Norway—see FIG. 1) based on previously known antimicrobial activities, and determined their exact MICs with broth microdilution assay. All 3 SAMPs are tripeptides with two arginine residues providing their cationic moieties (FIG. 1). The lipophilic bulk is provided by a modified tryptophane derivate. The difference between the compounds is the size of the C-terminal modification; Compound A has the smallest and Compound B has the largest C-terminal modification (FIG. 1). The molecular weights of the SAMPs are in the range of 700-800 Dalton.

[21] = planktonic, SE RP62A ATCC 35984

Molecule: CC(C)(C)c1cc(C(C)(C)C)c2[nH]c(C(C)(C)C)c(C[C@H](NC(=O)[C@@H](N)CCCNC(=N)N)C(=O)N[C@@H](CCCNC(=N)N)C(=O)NCCc3ccccc3)c2c1 [Compound B]
- MIC ([1]; planktonic, SA PIA 9): 2 µg/mL (≈ 2.54 µM)
- MIC ([2]; planktonic, SA PIA90): 2 µg/mL (≈ 2.54 µM)
- MIC [3, 21]: 4 µg/mL (≈ 5.08 µM)
- MIC ([4]; planktonic, SE TUH 08-16): 2 µg/mL (≈ 2.54 µM)
- MIC ([5]; planktonic, SH TUH 51-03): 4 µg/mL (≈ 5.08 µM)
- MIC ([6]; planktonic, SH TUH 51-07): 4 µg/mL (≈ 5.08 µM)
- suppression of metabolic activity (AB reduction) [7]: strong or complete suppression

Molecule: N=C(N)NCCC[C@H](NC(=O)[C@H](Cc1c[nH]c2ccccc12)NC(=O)[C@H](Cc1c[nH]c2ccccc12)NC(=O)[C@H](CCCNC(=N)N)NC(=O)[C@@H](N)Cc1c[nH]c2ccccc12)C(=O)NCCc1ccccc1 [ME 172, W-R-W-W-R-NH-CH2CH2Ph] (H-WRWWR-NHPhenethyl)
- MIC [8]: 16 µg/mL (≈ 16.1 µM)
- MIC [9]: 8 µg/mL (≈ 8.06 µM)
- MIC [10]: 8 µg/mL (≈ 8.06 µM)
- MIC [11]: 16 µg/mL (≈ 16.1 µM)
- MIC [12]: 16 µg/mL (≈ 16.1 µM)
- MIC [13]: 32 µg/mL (≈ 32.3 µM)
- MBIC measured as survival rate ([14]; 5 μg/ml): 100%
- MBIC measured as survival rate ([14]; 50 μg/ml): 85%
- MBIC measured as survival rate ([14]; 500 μg/ml): 10%
- MBIC measured as survival rate ([15]; 5 μg/ml): 100%
- MBIC measured as survival rate ([15]; 50 μg/ml): 6%
- MBIC measured as survival rate ([15]; 500 μg/ml): 8%
- MBIC measured as survival rate ([16]; 5 μg/ml): 100%
- MBIC measured as survival rate ([16]; 50 μg/ml): 41%
- MBIC measured as survival rate ([16]; 500 μg/ml): 12%
- MBIC measured as survival rate ([17]; 5 μg/ml): 100%
- MBIC measured as survival rate ([17]; 50 μg/ml): 80%
- MBIC measured as survival rate ([17]; 500 μg/ml): 20%
- MBIC measured as survival rate ([18]; 5 μg/ml): 100%
- MBIC measured as survival rate ([18]; 50 μg/ml): 100%
- MBIC measured as survival rate ([18]; 500 μg/ml): 18%
- MBIC measured as survival rate ([19]; 5 μg/ml): 100%
- MBIC measured as survival rate ([19]; 50 μg/ml): 55%
- MBIC measured as survival rate ([19]; 500 μg/ml): 10%

Molecule: CC(=O)NC[C@H]1CN(c2ccc(N3CCOCC3)c(F)c2)C(=O)O1 [LZD, linezolid]
- MIC ([1]; Staphylococcus aureus, PIA9): 2 µg/mL (≈ 5.93 µM)
- MIC ([2]; Staphylococcus aureus, PIA90): 1 µg/mL (≈ 2.96 µM)
- MIC ([3]; Staphylococcus epidermidis, ATCC35984): 1 µg/mL (≈ 2.96 µM)
- MIC ([4]; Staphylococcus epidermidis, TUH0816): 2 µg/mL (≈ 5.93 µM)
- MIC ([5]; Staphylococcus haemolyticus, TUH5103): 0.5 µg/mL (≈ 1.48 µM)
- MIC ([6]; Staphylococcus haemolyticus, TUH5107): 0.5 µg/mL (≈ 1.48 µM)
- susceptibility under planktonic growth ([20]; all 6 strains): susceptible; also recorded: sensitive

Molecule: gentamicin
- MIC ([1]; planktonic, SA PIA 9): 1 µg/mL
- MIC ([2]; planktonic, SA PIA90): 0.5 µg/mL
- MIC [3, 21]: 8 µg/mL
- MIC ([4]; planktonic, SE TUH 08-16): 256 µg/mL
- MIC ([5]; planktonic, SH TUH 51-03): 64 µg/mL
- MIC ([6]; planktonic, SH TUH 51-07): 64 µg/mL
- susceptibility under planktonic growth ([20]; the four other staphylococcal strains): resistant
- susceptibility under planktonic growth ([20]; the two S. aureus strains): susceptible
